Results from patent US8993637B2 (priority 2013, dated 2015).

Key:
[1] = tested on: mouse FSGS model (adriamycin-induced, BALB/c mice); assay: Mouse FSGS model: renal histopathology (H&E) and Col-IV immunohistochemistry; assay type: in vivo; conditions: days 14 and 28, Citral 200 mg/kg daily by gavage, p<0.01
Description: A progressive type of mouse FSGS model was used, particularly characterized by EPHLs, a key histopathology index of progression of FSGS, peri-glomerular inflammation, and progressive glomerular hyalinosis/sclerosis. The FSGS model was induced in 8-week-old male BALB/c mice (National Laboratory Animal Center, Taipei, Taiwan) by intravenous injection of a single dose of adriamycin (0.10 mg/10 g body weight) (Pfizer, New York, N.Y.) as described previously. […] Age- and sex-matched BALB/c mice were used as normal controls. Urine samples were collected in metabolic cages on days 3, 7, 14, 21, and 28. Renal cortical tissues and blood samples were collected when the mice were sacrificed and stored appropriately for further analysis. The concentration of urine protein was determined using BCA kits (Pierce, Rockford, Ill.) as described previously and normalized to urine creatinine (Cr) levels measured using kits (Wako Pure Chemical Industries, Osaka, Japan), as described previously. Serum levels of blood urea nitrogen (BUN) and Cr were determined using BUN kits and Cr kits (both from Fuji Dry-Chem Slide, Fuji Film Medical, Tokyo, Japan), as described previously.
Renal tissues were formalin-fixed, embedded in paraffin, and sections (4 μm) prepared and stained with hematoxylin and eosin (H&E) for renal histopathology as described previously or TUNEL stained for apoptosis as described previously. Renal pathology was examined and renal lesions scored as described previously. For EPHLs and sclerosis, at least 50 glomeruli in sections were examined for each mouse. To detect apoptosis in renal tissues, TUNEL staining was performed using an in situ apoptosis detection kit (Chemicon, Temecula, Calif.) according to the manufacturer's instructions. For immunohistochemistry, methyl Carnoy solution-fixed and paraffin-embedded renal sections were prepared and incubated with goat antibodies against mouse collagen IV (Col-IV) (Southern Biotech, AL) or rabbit antibodies against phosphorylated mouse NF-κB p65 (Cell Signaling Technology, MA), F4/80 (Serotec, Raleigh, N.C.), or CD3 (Serotec), then with horseradish-conjugated rabbit anti-goat IgG antibodies or swine anti-rabbit IgG antibodies (both from Dako, Carpinteria, Calif.). Quantitative image analysis software (Pax-it; Paxcam, VIIIa Park, Ill.) was used to score Col-IV staining and the number of phosphorylated NF-κB p65-, CD3-, F4/80-, or TUNEL-positive cells as described previously.

NF-κB in RAW-Blue cells = assay: NF-κB reporter assay (secreted embryonic alkaline phosphatase, QUANTI-Blue); assay type: cell-based, murine; conditions: 30 min preincubation, then 24 h LPS 1 μg/ml
Description: (§1) ROS production was measured as the relative fluorescence intensity. […] The data are expressed as the mean±SD for three separate experiments. *p<0.05, **p<0.01 compared to the LPS-treated group. RAW-Blue™ cells (Murine macrophages RAW264.7 stably transfected with the NF-κB reporter gene) purchased from InvivoGen (San Diego, Calif.). LPS (from Escherichia coli 0111:B4) and mouse antibodies against phospho-ERK1/2, phospho-JNK1/2, and phospho-p38 (all from Sigma, St. Louis, Mo.). Rabbit antibodies against mouse ERK1, JNK1, and p38, and HRP-labeled second antibodies were purchased from Santa Cruz Biotechnology, and IL-1β, IL-6, and TNF-α ELISA kits from R&D Systems. ROS production assay, NO production assay, NF-κB reporter assay, ELISA, and Western blotting were performed as described previously.

RAW 264.7 macrophages [2] = assay: Pro-inflammatory cytokine ELISA in LPS-activated macrophages; assay type: cell-based, murine; conditions: LPS 1 μg/ml 24 h, culture medium
Description: as §1

RAW 264.7 macrophages [3] = assay: NO production assay (Griess reaction) in LPS-activated macrophages; assay type: cell-based, murine; conditions: 30 min preincubation, then 24 h LPS 1 μg/ml; p<0.05
Description: as §1

[4] = tested on: p47phox, Nrf2, NQO1, HO-1; assay: Mouse FSGS model: renal p47phox, nuclear Nrf2, NQO1 (Western blot) and HO-1 (ELISA); assay type: in vivo
Description: A progressive type of mouse FSGS model was used, particularly characterized by EPHLs, a key histopathology index of progression of FSGS, peri-glomerular inflammation, and progressive glomerular hyalinosis/sclerosis. The FSGS model was induced in 8-week-old male BALB/c mice (National Laboratory Animal Center, Taipei, Taiwan) by intravenous injection of a single dose of adriamycin (0.10 mg/10 g body weight) (Pfizer, New York, N.Y.) as described previously. […] Age- and sex-matched BALB/c mice were used as normal controls. Urine samples were collected in metabolic cages on days 3, 7, 14, 21, and 28. Renal cortical tissues and blood samples were collected when the mice were sacrificed and stored appropriately for further analysis. The concentration of urine protein was determined using BCA kits (Pierce, Rockford, Ill.) as described previously and normalized to urine creatinine (Cr) levels measured using kits (Wako Pure Chemical Industries, Osaka, Japan), as described previously. Serum levels of blood urea nitrogen (BUN) and Cr were determined using BUN kits and Cr kits (both from Fuji Dry-Chem Slide, Fuji Film Medical, Tokyo, Japan), as described previously. Cytoplasmic and nuclear proteins from renal tissues were prepared using a kit (Active Motif, Tokyo, Japan) according to the manufacturer's instructions and target proteins detected by immunoblotting using goat antibodies against mouse Nrf2 or p47^phox, (Santa Cruz Biotechnology, Santa Cruz, Calif.) or rabbit antibodies against mouse NQO1 (Abcam), caspase-3, caspase-8, or caspase-9 (all from Cell Signaling Technology, MA) or Bcl2 or Bax (both from Santa Cruz Biotechnology), then with horseradish-conjugated rabbit anti-goat IgG antibodies or goat-anti-rabbit IgG antibodies (both from Santa Cruz Biotechnology) as described previously. Anti-β-actin antibody (Santa Cruz Biotechnology) was used as internal controls for the nuclear and cytosolic target proteins, respectively. Renal HO-1 levels were measured using a commercial ELISA kit (R&D Systems, Minneapolis, Minn.) according to the manufacturer's instructions.

[5] = Adverse side effects in animals; conditions: in vivo

In the case of CC(C)=CCCC(C)=CC=O (racemic) [Citral, 3,7-dimethyl-2,6-octadienal], the “glomerular EPHLs” value ([1]; H&E) is reported as “greatly decreased”, the glomerular hyalinosis/sclerosis ([1]; H&E) is reported as “greatly decreased” and the peri-glomerular inflammation ([1]; H&E) is reported as “greatly decreased”. For the same molecule, the “renal Col-IV expression” value ([1]; immunohistochemistry) was “markedly inhibited”, the “NF-κB transcriptional activity in LPS-stimulated macrophages” value (NF-κB in RAW-Blue cells) was “reduced” and the “secretion level of IL-1β” value (RAW 264.7 macrophages [2]) was “inhibited”. The “secretion level of IL-6” value (RAW 264.7 macrophages [2]) was “inhibited”, the “secretion level of TNF-α” value (RAW 264.7 macrophages [2]) was “inhibited” and the “LPS-induced increase in NO generation” value (RAW 264.7 macrophages [3]) was “inhibited”. The “decrease of nuclear Nrf2 expression” value ([4]; day 14, kidney) was “inhibited at day 14 in FSGS+Citral mice, although not statistically significant”, the “increase of renal p47phox protein levels” value ([4]; day 28, cytosolic, p<0.01) was “inhibited” and the “cytosolic levels of NQO1” value ([4]; day 28, relative to normal control mice, p<0.01) was “significantly higher”. The “nuclear Nrf2 levels” value ([4]; day 28, vs FSGS+vehicle (p<0.005) and normal control mice (p<0.05)) was “greatly increased”, the “renal HO-1 levels” value ([4]; days 14 and 28, vs FSGS+vehicle mice, p<0.05 or p<0.01) was “significantly elevated” and the “adverse side effects to animals” value [5] was “no apparent adverse side effects”.
